Target: T1, new ADP-ribosyl cyclase (ADPRC) of SEQ ID NO 1 (Mus musculus, UniProt P14094)
T1 construct: FLAG (N); made in house; host or cells: HEK293 cells or MES13 cells (transient transfection)
Assay: Inhibition of NAD glycohydrolase (NADase) activity of new ADPRC
Type: biochemical
Details: as compared to the control group; ε-NAD substrate, 37° C. 1 hour; inhibitor concentration not given; FIG. 5
Description: In order to investigate the ADP-ribosyl cyclase (ADPRC) activity of SEQ ID NO 1, a FLAG-ADPRC plasmid was prepared by ligating a cDNA sequence encoding ADPRC into a FLAG-CMV-2 vector and the overexpression of new ADPRC was induced by treating HEK293 cells or MES13 cells using a transfection reagent. The overexpressed new ADPRC was lysed with a lysis buffer. 45 μL of the lysed sample was treated with 5 μL of 2 mM ε-NAD (nicotinamide 1,N6-ethenoadenine dinucleotide) and incubated at 37° C. for 1 hour. Then, the enzyme-substrate reaction was stopped by treating with 50 μL of 10% trichloroacetic acid. After centrifuging for 10 minutes and adding 80 μL of the supernatant to 720 μL of 0.1 M sodium phosphate buffer, absorbance was measured at 297 nm (excitation) and 410 nm (emission) with a fluorescence spectrometer.
In order to find an inhibitor which inhibits the activation of new ADP-ribosyl cyclase (ADPRC) of SEQ ID NO 1, 5 μL of each of 4,4′-dihydroxyazobenzene (4-DHAB, TCI (Japan)), 2,2′-dihydroxyazobenzene (2-DAB, Sigma-Aldrich (USA)), 2-(3,4-dihydroxyphenyl)-3,5,7-trihydroxychromen-4-one (Quercetin, Sigma-Aldrich (USA)) and San4825 (synthesized by Kannt A et al. [Kannt A, Sicka K, Kroll K, Kadereit D, Gogelein H. Naunyn. Schmiedebergs. Arch. Pharmacol. 385: 717-727, 2012], China) and 2-(1,3-benzoxazol-2-ylamino)-1-methylquinazoline-4(1H)-one (2-BMQ) and 1,4-dicaffeoylquinic acid (1,4-DCQA, Biopurify (China), hereinafter DCQA), which were newly found through screening, was reacted with 40 μL of new ADPRC in iced water for 15 minutes. Then, reaction was conducted at 37° C. for 1 hour after treating with 5 μL of 2 mM ε-NAD (nicotinamide 1,N6-ethenoadenine dinucleotide). Then, the enzyme-substrate reaction was stopped by treating with 50 μL of 10% trichloroacetic acid. After centrifuging for 10 minutes and adding 80 μL of the supernatant to 720 μL of 0.1 M sodium phosphate buffer, absorbance was measured at 297 nm (excitation) and 410 nm (emission) using a fluorescence spectrometer.

| NAD glycohydrolase (NADase) activity inhibited [%] | SMILES |
| --- | --- |
| 36.49 | Cn1c(Nc2nc3ccccc3o2)nc(=O)c2ccccc21 [2-BMQ, 2-(1,3-benzoxazol-2-ylamino)-1-methylquinazoline-4(1H)-one] |
| 42.40 | Oc1ccc(N=Nc2ccc(O)cc2)cc1 [4-DHAB, 4,4′-dihydroxyazobenzene] |

From patent US20220235343A1, “NOVEL ADP-RIBOSYL CYCLASE AND INHIBITOR THEREOF” (INDUSTRIAL COOPERATION FOUNDATION CHONBUK NATIONAL …, priority 2019, published 2022)
